Test results published in patent US4666936A, “Amide derivatives of 2-(p-aminobenzyl)-butyric acid and esters thereof having hypolipidemizing activity” (Medosan Industrie Biochimiche Riunite S.p.A., priority 1984, dated 1987).
Entries after “also recorded” stand apart in the source; their conditions may differ.

Assays:
[1] = system: cholesterol and triglycerides; conditions: literature, prior art; cited from earlier work
[2] = mouse, os; value as reported in literature: G. Metz et al, Arzneimittel Forschung, 27: 1173; 1977; cited from earlier work
[3] = system: hematic levels of triglycerides and total cholesterol; assay: Hypolipidemizing activity in rat made hyperlipidemic by Triton WR-1339; type: in vivo, rat (male Wistar); conditions: 500 mg/kg per os; for Total cholesterol, % mg / Triglycerides, % mg: serum after 18 hours fasting; for Total cholesterol, % variation / Triglycerides, % variation: vs carrier
Description: (§1) The preparations administered "in vivo" by oral route, comprise a 0.5% suspension of carboxymethylcellulose in a neutral pH normal physiological saline for the compounds (3), (4) and (5), while for the compounds (2) and (6) the preparation comprises a solution in NaOH (0.1N) at pH 7-7.5. The hypolipidemizing activity of the substances under test was evaluated as the ability to decrease the hematic levels of triglycerides and total cholesterol in animals made hyperlipidemic by administration of Triton (antihyperlipidemic agents, J. N. Moss, Screening Methods in Pharmacology,Ed. Robert A. Turner and P. Hebborn, volume II, Academic Press, pages 121-143). The test was carried out on two animal species: rat and mouse. Male Wistar rats and Swiss mice were used, held at a normal diet, the former weighing 200-260 g, the latter weighing about 26-30 g. The compounds (2), (3), (4), (5) and (6) and the Bezafibrate and Clofibrate of control were administered per os at a dose of 500 mg/kg, simultaneously with a 10% solution in normal saline of Triton WR-1339 endoperitoneally at a rate of 2 ml/kg body weight. After treatment, the animals were divided into lots of eight, and held fasting for 18 hours and then sacrificed. The hematic levels of triglycerides total cholesterol are measured on the serum by enzymatic methods (Test-Combination Triglycerides, Boehring Mannheim GmbH) and colorimetric methods (Test-Combination Cholesterol, Boehring Mannheim GmbH). The results on the hypolipidemizing activity of the compounds under test in rat and mouse are referred in tables I and II.

[4] = system: hematic levels of triglycerides and total cholesterol; assay: Hypolipidemizing activity in mouse made hyperlipidemic by Triton WR-1339; type: in vivo, mouse (Swiss); conditions: 500 mg/kg per os; for Total cholesterol, % mg / Triglycerides, % mg: serum after 18 hours fasting; for Total cholesterol, % variation / Triglycerides, % variation: vs carrier
Description: as §1

[5] = Acute toxicity (DL50) in mouse, oral route; conditions: in vivo, oral (os), 15 days observation
Description: DL50 was evaluated after administration of the compounds (2), (3), (4), (5) and (6) alone in male albine Swiss mice weighing 27±3 g, using the oral route. The animals were held under observation by checking the mortality and pain signs, if any, for 15 days.
The DL50 values (mg/kg) are referred in table III.

[6] = system: hematic levels of cholesterol and triglycerides; assay: Pharmacological tests of hypolipidemizing activity, overall statements; type: in vivo, rat and mouse; conditions: compared with Bezafibrate and Clofibrate
Description: as §1

[7] = system: hepatic enzymes involved in the biosynthesis de novo of the triglycerides; conditions: literature, appears to occur possibly; cited from earlier work
cholesterol = conditions: literature, appears to occur possibly; cited from earlier work

SMILES	hypolipidemizing activity (in words) [1]	DL50 [2] [mg/kg]	Total cholesterol, % mg [3] [% mg]	Triglycerides, % mg [3] [% mg]	Total cholesterol, % variation [3] [%]	Triglycerides, % variation [3] [%]	Total cholesterol, % mg [4] [% mg]	Triglycerides, % mg [4] [% mg]	Total cholesterol, % variation [4] [%]	Triglycerides, % variation [4] [%]	LD50 [5] [mg/kg]	hypocholesterolemizing and hypolipidemizing activity (in words) [6]	inhibiting activity in vivo on hepatic enzymes [7]	cholesterol absorption at the intestinal level (cholesterol)	excretion of cholesterol with the bile (cholesterol)
CCOC(=O)C(C)(C)Oc1ccc(Cl)cc1 [Clofibrate, reference compound]	ability to decrease the hematic levels of cholesterol and triglycerides	1280	218	420	-19	-19	152	115	-27	-22	–	–	–	–	–
Cc1ccc(C)n1-c1ccc(CC(=O)Nc2nccs2)cc1	hypolipidemizing activity lower than that of Bezafibrate	–	–	–	–	–	–	–	–	–	–	–	–	–	–
CCOC(=O)C(CC)Cc1ccc(N2C(=O)c3ccccc3C2=O)cc1 (stereo not shown) [Compound (3), 2-(p-phthalimidobenzyl)-butyric acid ethyl ester]	–	–	189	390	-30	-25	140	64	-33	-56	> 1700	interesting ability to decrease the hematic levels of cholesterol and triglycerides; also recorded: particularly high hypocholesterolemizing and hypolipidemizing activity	–	–	–
CCOC(=O)C(CC)Cc1ccc(NC(=O)Cc2ccc(-n3cccc3)cc2)cc1 (stereo not shown) [Compound (5), 2-{4-[4-(1-pyrryl)-phenylacetamido]-benzyl}-butyric acid ethyl ester]	–	–	205	410	-24	-21	130	80	-38	-45	> 2000	interesting ability to decrease the hematic levels of cholesterol and triglycerides; also recorded: particularly high hypocholesterolemizing and hypolipidemizing activity	–	–	–
CCC(Cc1ccc(N2C(=O)c3ccccc3C2=O)cc1)C(=O)O (stereo not shown) [Compound (2), 2-(p-phthalimidobenzyl)-butyric acid]	–	–	176	360	-35	-31	130	60	-38	-59	> 2000	interesting ability to decrease the hematic levels of cholesterol and triglycerides; also recorded: particularly high hypocholesterolemizing and hypolipidemizing activity	–	–	–
CC(=O)c1ccccc1N1C(=O)c2ccccc2C1=O [o-(N-phthalimido)acetophenone]	more active than Clofibrate in reducing the serum cholesterol percentage and the triglyceride level	–	–	–	–	–	–	–	–	–	–	–	inhibiting activity in vivo	decrease the cholesterol absorption at the intestinal level	speed up the excretion of cholesterol with the bile
CC(C)(Oc1ccc(CCNC(=O)c2ccc(Cl)cc2)cc1)C(=O)O [Bezafibrate, reference compound]	ability to decrease the hematic levels of cholesterol and triglycerides	–	210	415	-22	-20	139	100	-33	-32	–	–	–	–	–
CC(C)OC(=O)C(C)(C)Oc1ccc(C(=O)c2ccc(Cl)cc2)cc1 [Procetofene]	hypolipidemizing activity lower than that of Bezafibrate	–	–	–	–	–	–	–	–	–	–	–	–	–	–
CCC(Cc1ccc(NC(=O)c2ccccc2C(=O)O)cc1)C(=O)O (stereo not shown) [Compound (6), 2-(p-phthalylaminobenzyl)-butyric acid]	–	–	180	380	-32	-28	130	64	-38	-56	> 2000	interesting ability to decrease the hematic levels of cholesterol and triglycerides; also recorded: particularly high hypocholesterolemizing and hypolipidemizing activity	–	–	–
CCOC(=O)C(CC)Cc1ccc(NC(=O)c2ccc(Cl)cc2)cc1 (stereo not shown) [Compound (4), 2-[4-(p-chlorobenzamido)-benzyl]-butyric acid ethyl ester]	–	–	200	400	-26	-23	129	90	-38	-39	> 2000	interesting ability to decrease the hematic levels of cholesterol and triglycerides; also recorded: particularly high hypocholesterolemizing and hypolipidemizing activity	–	–	–
O=C1NC(=O)c2ccccc21 [phthalimide]	hypocholesterolemizing activity	–	–	–	–	–	–	–	–	–	–	–	–	–	–
